Literature values, collected in US20170135989A1, “ALLISARTAN ISOPROXIL SOLID DISPERSION AND PHARMACEUTICAL COMPOSITION” (SHENZHEN SALUBRIS PHARMACEUTICALS CO., LTD, priority 2014, published 2017).

Experiments:
[1] = molecular target: T1, angiotensin II receptor (Homo sapiens, UniProt P30556); details: from CN200680000397.8; compared with products of the same type (such as losartan)
T1 sequence (P30556 1-359): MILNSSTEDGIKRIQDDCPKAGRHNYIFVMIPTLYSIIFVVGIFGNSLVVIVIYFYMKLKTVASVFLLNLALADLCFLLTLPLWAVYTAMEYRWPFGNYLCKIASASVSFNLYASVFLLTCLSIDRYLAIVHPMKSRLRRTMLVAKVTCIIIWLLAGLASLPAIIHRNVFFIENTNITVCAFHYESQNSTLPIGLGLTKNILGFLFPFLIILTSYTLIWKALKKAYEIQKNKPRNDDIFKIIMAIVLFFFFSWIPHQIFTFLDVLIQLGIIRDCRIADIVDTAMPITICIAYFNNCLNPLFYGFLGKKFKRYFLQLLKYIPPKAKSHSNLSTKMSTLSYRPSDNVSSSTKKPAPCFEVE

[2] = from CN200680000397.8

Solubility in water: low
Compound: CCCCc1nc(Cl)c(C(=O)OCOC(=O)OC(C)C)n1Cc1ccc(-c2ccccc2-c2nnn[nH]2)cc1 [Allisartan isoproxil, 2-butyl-4-chloro-1-[2′-(1H-tetrazol-5-yl)-1,1′-biphenyl-methyl]-imidazole-5-carboxylic acid, 1-[(isopropoxy)-carbonyloxy]-, methyl ester]
Antihypertensive effect [1]: better antihypertensive effect than products of the same type
Toxicity [2]: low toxicity
